The target in data set [1] is Beta-3 adrenergic receptor (Homo sapiens, UniProt P13945). The data set can be described thus: Agonistic activity was assessed by measuring cAMP accumulation in CHO cell lines expressing cloned human Beta-3 adrenergic receptor. The class given is functional, cell-based. Background: Changes in cAMP serve as a functional read-out for many G protein-coupled receptors.
Data set [2] deals with Beta-1 adrenergic receptor (Homo sapiens, UniProt P08588).
Description: Agonistic activity was assessed by measuring cAMP accumulation in CHO cell lines expressing cloned human Beta-1 adrenergic receptor
Data set [3] has as its target Beta-2 adrenergic receptor and beta-3 adrenergic receptor (Homo sapiens) (UniProt P07550+P13945). The data set can be described thus: Ratio of agonistic activity to produce cAMP by stimulating beta-2 and beta-3 adrenergic receptor in chinese hamster ovary cells. The class given is functional, cell-based.
A short description of data set [4]: Half life of compound after intravenous dose of 0.32 mg/kg. The class given is ADME, organism-based, Canis lupus familiaris. Details: dose 0.32 mg/kg, route intravenous. The settings on record: dog, in vivo.
The target of data set [5] is Beta-2 adrenergic receptor (Homo sapiens, UniProt P07550). The data set can be described thus: Agonistic activity was assessed by measuring cAMP accumulation in CHO cell lines expressing cloned human Beta-2 adrenergic receptor. The class given is functional, cell-based.
Chain of Beta-2 adrenergic receptor (P07550 whole entry): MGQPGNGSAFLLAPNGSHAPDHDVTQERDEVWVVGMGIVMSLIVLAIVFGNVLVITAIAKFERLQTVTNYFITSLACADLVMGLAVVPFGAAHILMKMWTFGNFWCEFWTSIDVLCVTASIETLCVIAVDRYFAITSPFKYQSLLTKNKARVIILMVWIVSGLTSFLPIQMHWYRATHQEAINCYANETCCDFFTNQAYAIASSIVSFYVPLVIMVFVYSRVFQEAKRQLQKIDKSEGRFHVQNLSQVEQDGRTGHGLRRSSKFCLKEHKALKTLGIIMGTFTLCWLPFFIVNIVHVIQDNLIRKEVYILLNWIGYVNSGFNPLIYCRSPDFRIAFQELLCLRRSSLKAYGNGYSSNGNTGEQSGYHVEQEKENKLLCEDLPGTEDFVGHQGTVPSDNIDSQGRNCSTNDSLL
A short description of data set [6]: Maximum plasma concentration after orally administered dose of 3.2 mg/kg. The class given is ADME, organism-based. Set-up: dose 3.2 mg/kg, route oral. The settings on record: rat, po.
The nature of data set [7]: Maximum plasma concentration after orally administered dose of 0.32 mg/kg. The class given is ADME, organism-based, Canis lupus familiaris. Details: dose 0.32 mg/kg, route oral. The settings on record: dog, po.
A short description of data set [8]: Area under concentration-time curve after orally administered dose of 3.2 mg/kg. Set-up: dose 3.2 mg/kg, route oral. The class given is ADME, organism-based. Particulars: rat, in vivo, po.
A short description of data set [9]: Area under concentration-time curve after orally administered dose of 0.32 mg/kg. The class given is ADME, organism-based, Canis lupus familiaris. Set-up: dose 0.32 mg/kg, route oral. The settings on record: dog, in vivo, po.
Data set [10] in a line: Half life of compound after intravenous dose of 1 mg/kg. The class given is ADME, organism-based. Set-up: dose 1 mg/kg, route intravenous. The settings on record: rat, in vivo.
Data set [11] can be described thus: Total clearance rate after intravenous dose of 0.32 mg/kg. The class given is ADME, organism-based, Canis lupus familiaris. Set-up: dose 0.32 mg/kg, route intravenous. The settings on record: dog, in vivo, read-out: CLtot.
Data set [12] is described as follows: Percent bioavailability after intravenous dose of 1 mg/kg. The class given is ADME, organism-based. The settings on record: rat, in vivo.
Data set [13] can be described thus: Percent bioavailability after intravenous dose of 0.32 mg/kg. The class given is ADME, organism-based, Canis lupus familiaris. Particulars: dog, in vivo.
The nature of data set [14]: Total clearance rate after intravenous dose of 1 mg/kg. The class given is ADME, organism-based. Particulars: rat, in vivo, read-out: CLtot. Set-up: dose 1 mg/kg, route intravenous.

Chain of Beta-3 adrenergic receptor (P13945 whole entry): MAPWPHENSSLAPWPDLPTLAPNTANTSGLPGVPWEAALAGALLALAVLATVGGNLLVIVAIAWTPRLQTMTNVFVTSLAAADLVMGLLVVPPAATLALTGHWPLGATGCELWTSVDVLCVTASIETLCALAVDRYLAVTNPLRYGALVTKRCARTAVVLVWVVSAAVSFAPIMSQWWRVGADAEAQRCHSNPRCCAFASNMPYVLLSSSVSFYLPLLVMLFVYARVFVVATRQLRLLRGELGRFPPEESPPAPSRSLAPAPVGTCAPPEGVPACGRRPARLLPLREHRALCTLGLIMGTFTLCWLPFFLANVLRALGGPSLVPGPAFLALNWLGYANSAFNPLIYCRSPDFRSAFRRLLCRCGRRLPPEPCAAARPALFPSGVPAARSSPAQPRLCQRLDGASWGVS
Chain of Beta-1 adrenergic receptor (P08588 whole entry): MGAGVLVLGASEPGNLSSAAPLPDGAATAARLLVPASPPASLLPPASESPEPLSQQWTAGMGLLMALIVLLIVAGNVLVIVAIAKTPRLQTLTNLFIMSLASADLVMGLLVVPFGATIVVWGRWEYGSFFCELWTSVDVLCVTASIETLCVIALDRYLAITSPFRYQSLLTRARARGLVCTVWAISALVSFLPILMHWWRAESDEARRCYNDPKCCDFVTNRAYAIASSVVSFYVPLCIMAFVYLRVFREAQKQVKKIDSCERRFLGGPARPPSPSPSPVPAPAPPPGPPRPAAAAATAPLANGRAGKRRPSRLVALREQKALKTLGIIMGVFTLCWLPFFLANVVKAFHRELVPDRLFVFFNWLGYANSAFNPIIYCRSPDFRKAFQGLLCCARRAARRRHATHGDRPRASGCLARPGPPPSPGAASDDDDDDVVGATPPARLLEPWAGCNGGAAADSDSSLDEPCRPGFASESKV

The term EC50 denotes the concentration needed to bring the measured effect to its halfway point. With `O=C(Nc1ccc(C[C@@H](CO)NC[C@H](O)COc2ccccc2)cc1)NC1CCCCC1`, the EC50 turned out to be 2.1 nM in data set [1] and 15 nM in data set [2].
On the same counts, the results for `COc1cccc(NC(=O)Nc2ccc(C[C@@H](CO)NC[C@H](O)COc3ccccc3)cc2)c1` are 0.8 nM and 4 nM.
What is called half-life is how long it takes for the measured level to halve. Read a high half-life as slow decline. Broadly, the Cmax is the peak of the concentration-time curve. As usually defined, the AUC is concentration integrated over time. As a reminder, the bioavailability is dose-corrected exposure relative to a reference, in per cent. The low end stands for little systemic uptake, the high end for much systemic uptake. In the case of `O=C(Nc1ccccc1)Nc1ccc(C[C@@H](CO)NC[C@H](O)COc2ccccc2)cc1`, in data set [3], the Selectivity was more than 200. For the same molecule, the half-life in data set [4] is 8.1 h. Besides, the results for the half-maximal effective concentration (EC50) in [5], in data set [1] and in [2] were more than 100 nM, 0.5 nM and 20 nM, respectively. Further, the peak concentration (Cmax) in data set [6] was 4.2 ng/mL; in data set [7] it was 52.6 ng/mL. The figures for the area under the curve (AUC) in [8] and in [9] were 4.2 ng·h/mL and 140 ng·h/mL, respectively. The same molecule came in with a T1/2 in data set [10] of 1.3 h. For the same molecule, the clearance in data set [11] turned out to be 24.2 mL/min/kg; in [14] it was 142 mL/min/kg. The figures for the bioavailability in data set [12] and in [13] were 1.1% and 20.3%, respectively.
Turning to `O=C(Nc1ccc(C[C@@H](CO)NC[C@H](O)COc2ccccc2)cc1)Nc1cccc([N+](=O)[O-])c1`, the concentration for a half-maximal effect (EC50) in data set [1] came to 1 nM; in [2], 0.9 nM.
With `O=C(Nc1ccccc1)Nc1ccc(C[C@@H](CO)NC[C@H](O)c2cccc(Cl)c2)cc1`, the concentration giving a half-maximal response (EC50) in [1] came out at 74 nM. In other words, the double-digit nanomolar range.
As for `CC(C)NC(=O)Nc1ccc(C[C@@H](CO)NC[C@H](O)COc2ccccc2)cc1`, the concentration giving a half-maximal response (EC50) in data set [1] is 4.9 nM; in data set [2] it was 27 nM.
In the case of `O=C(Nc1ccc(C[C@@H](CO)NC[C@H](O)COc2ccccc2)cc1)Nc1cccc(C(=O)O)c1`, the EC50 came to 1.5 nM in data set [1] and 1.3 nM in data set [2].
For `CCCNC(=O)Nc1ccc(C[C@@H](CO)NC[C@H](O)COc2ccccc2)cc1` the same measures were 8.3 nM and 51 nM.
For `COc1ccccc1NC(=O)Nc1ccc(C[C@@H](CO)NC[C@H](O)COc2ccccc2)cc1` the same measures were 1.1 nM and 12 nM.
On the same counts, the results for `O=C(Nc1ccccc1)Nc1ccc(CCNC[C@H](O)COc2ccccc2)cc1` are 1.6 nM and 3.6 nM.
Regarding `O=C(Nc1ccccc1)Nc1ccc(C[C@@H](CO)NC[C@H](O)COc2cccc3[nH]c4ccccc4c23)cc1`, the EC50 in [1] amounted to 22 nM. This counts as double-digit nanomolar.
Consider `COc1ccc(NC(=O)Nc2ccc(C[C@@H](CO)NC[C@H](O)COc3ccccc3)cc2)cc1`, for which the EC50 in [1] is 2.5 nM; in data set [2], 2.2 nM.
